Earlier results, collected in the PKSmart pharmacokinetics tables (Seal et al. 2025).

Experiment: Lombardo, Berellini, Obach 2018, Drug Metab Dispos 46:1466, doi 10.1124/dmd.118.082966
Details: human; for MRT / Vd / clearance / half-life: in vivo, iv; for fraction unbound: plasma

| Compound | MRT [h] | Vd [L/kg] | clearance [mL/min/kg] | half-life [h] | fraction unbound |
| --- | --- | --- | --- | --- | --- |
| O=P(NCCCl)(NCCCl)O[C@@H]1O[C@H](CO)[C@@H](O)[C@H](O)[C@H]1O | 2.49 | 0.24 | 1.6 | 2.37 | 0.71 |
| CC1(C)[C@H]2CC[C@@]3(C)C(C(=O)C=C4C5C[C@](C)(C(=O)O)CC[C@@]5(C)CC[C@@]43C)[C@]2(C)CC[C@H]1O[C@H]1OC(C(=O)O)[C@@H](O)[C@H](O)[C@H]1O[C@@H]1OC(C(=O)O)[C@@H](O)[C@H](O)[C@H]1O (some centres not stated) | 30.9 | 0.09 | 0.05 | 23.1 |  |
| CN(C)CCn1nnnc1SCC1=C(C(=O)O)N2C(=O)C(NC(=O)Cc3csc(N)n3)[C@H]2SC1 (some centres not stated) | 0.76 | 0.26 | 5.8 | 0.84 | 0.5 |
| Nc1nc(=O)c2c([nH]1)NC[C@H](CNc1ccc(C(=O)NC(CCC(=O)O)C(=O)O)cc1)N2C=O (some centres not stated) | 1.1 | 0.27 | 4.1 | 1.1 |  |
| CC(C)=CCN1CC[C@]2(C)c3cc(O)ccc3C[C@H]1C2C (some centres not stated) |  |  |  |  | 0.39 |
| CC[C@@]1(O)C[C@H](O[C@@H]2C[C@H](N3CCOCC3)[C@H](O)[C@H](C)O2)c2c(O)c3c(c(O)c2[C@H]1O)C(=O)c1cccc(O)c1C3=O | 8 | 20.9 | 42.8 | 10.7 | 0.09 |
| CSCC(NC(=O)COc1cccc2cnccc12)C(=O)NC(Cc1ccccc1)C(O)C(=O)N1CSCC1C(=O)NC(C)(C)C (configuration not stated) | 0.17 | 0.11 | 10.5 | 0.44 |  |
| CC(C)=CCC[C@](C)(O[C@@H]1O[C@H](CO)[C@@H](O)[C@H](O)[C@H]1O)[C@H]1CC[C@]2(C)[C@@H]1[C@H](O)C[C@@H]1[C@@]3(C)CC[C@H](O[C@@H]4O[C@H](CO)[C@@H](O)[C@H](O)[C@H]4O[C@@H]4O[C@H](CO)[C@@H](O)[C@H](O)[C@H]4O)C(C)(C)[C@@H]3CC[C@]12C | 20.2 | 0.11 | 0.09 | 18.5 |  |
| CC(C)NC[C@@H](O)COc1cccc2c1N(C(=O)c1cccnc1)CCC2 | 3.1 | 0.67 | 3.6 | 12.4 |  |
| COc1ccc(Cl)cc1C(=O)NCCc1ccc(S(=O)(=O)NC(=O)NC2CCCCC2)cc1 | 1.6 | 0.08 |  | 2.2 | 0.021 |
| CC(C)=CCC[C@]1(C)C=Cc2c(O)c3c(c(CC=C(C)C)c2O1)O[C@]12C(=CC4C[C@@H]1C(C)(C)O[C@@]2(C/C=C(/C)C(=O)O)C4=O)C3=O | 13.3 | 0.99 | 1.24 | 14.6 |  |
| COc1c(N2CCC/C(=C(\F)CN)C2)c(F)cc2c(=O)c(C(=O)O)cn(C3CC3)c12 | 24.2 | 1.13 | 0.78 | 19.6 | 0.34 |
| O=C(O)CCCc1ccc(N(CCCl)CCCl)cc1 | 1.5 | 0.26 | 2.8 | 1.1 |  |
| O=C1CN=C(c2ccccc2Cl)c2cc(Br)ccc2N1 | 28.3 | 0.089 | 0.05 | 14.9 |  |
| CN(C)N=Nc1nc[nH]c1C(N)=O | 7.8 | 1.2 | 2.6 | 6.2 | 1 |
| CC(C)(C)c1cnc(CSc2cnc(NC(=O)C3CCNCC3)s2)o1 | 7.13 | 5.14 | 13 | 9.3 |  |
| CC(=O)O[C@H]1C[C@@H]2CC[C@@H]3[C@H](CC[C@@]4(C)[C@H]3C[C@H]([N+]3(C)CCCCC3)[C@@H]4OC(C)=O)[C@@]2(C)C[C@@H]1[N+]1(C)CCCCC1 | 2.2 | 0.2 |  | 1.9 | 0.09 |

| Compound | MRT [h] | Vd [L/kg] | clearance [mL/min/kg] | half-life [h] | fraction unbound |
| --- | --- | --- | --- | --- | --- |
| CN(C)Cc1c(C(=O)NCCOc2ccc(C(O)=NO)cc2)oc2ccccc12 | 2.65 | 2.6 | 16.3 | 5.9 |  |
| Oc1ccc(C2=Cc3ccc(O)cc3OC2)cc1 | 0.44 | 1.55 | 59.1 | 0.67 |  |
| O=C1c2ccc3ccccc3c2C(=O)N1CCNCCCNCCN1C(=O)c2ccc3ccccc3c2C1=O | 35.2 | 12 | 5.7 | 52.6 |  |
| Cc1ncc([N+](=O)[O-])n1C[C@H](O)CCl | 18.1 | 1.16 | 1.08 | 12 | 0.88 |
| C[C@]12CC[C@@H]3c4ccc([O-])cc4C[C@H](CCCCCCCCC[S+](O)CCCC(F)(F)C(F)(F)F)C3[C@@H]1CC[C@@H]2O (some centres not stated) | 5.86 | 4.15 | 11.8 | 16 | 0.01 |
| Cn1cc[nH]c1=S | 3.8 | 0.86 | 3.7 | 2.4 |  |
| COc1ccccc1Oc1c(NS(=O)(=O)c2ccc(C(C)C)cn2)nc(-c2ccnc(-c3nnn[nH]3)c2)nc1OCCO |  | 0.28 | 8.1 | 3.8 | 0.0085 |
| Cc1cc(O)c2c(=O)c3c(O)cc(O)c4c5c(O)cc(O)c6c(=O)c7c(O)cc(C)c8c1c2c(c34)c(c78)c65 | 32 | 0.25 | 0.13 | 42 |  |
| O=C1C[C@@H](c2ccccc2)Oc2cc(O)cc(O)c21 | 0.47 | 0.8 | 27 | 0.7 |  |
| O=C1NC(c2ccccc2)(c2ccccc2)C(=O)N1COP(=O)(O)O | 0.17 | 0.06 | 3.5 | 0.16 | 0.05 |
| CC[C@@]1(O)C(=O)OCc2c1cc1n(c2=O)Cc2c-1nc1cc3c(cc1c2CN1CCN(C)CC1)OCCO3 | 3.5 | 4.77 | 25.1 | 3.54 |  |
| CCOc1cc(CC(=O)N[C@@H](CC(C)C)c2ccccc2N2CCCCC2)ccc1C(=O)O | 1.88 | 0.315 | 4.92 | 1.69 |  |
| CN(C)c1cc(CNCC(C)(C)C)c(O)c2c1C[C@H]1C[C@H]3[C@H](N(C)C)C(O)=C(C(N)=O)C(=O)[C@@]3(O)C(O)=C1C2=O | 19.2 | 2.7 | 2.34 | 15 |  |
| C[C@@H](N)[C@H]1CC[C@@H](N)[C@@H](O[C@@H]2[C@@H](N)[C@@H](O)[C@@H](O)[C@@H](N(C)C(=O)CN)[C@H]2O)O1 | 3.3 | 0.27 | 1.37 | 2.9 |  |
| CC1C(=O)O[C@H]2C[C@@]34[C@H]5C[C@@H](C(C)(C)C)C36C(O)C(=O)O[C@H]6OC4(C(=O)O5)[C@@]12O (some centres not stated) | 4.6 | 0.62 | 2.3 | 3.8 |  |
| Cc1nc(NNC(=O)C(CC2CCCC2)CN(O)C=O)c(F)c(N2CCN3CCOCC3C2)n1 (configuration not stated) | 2.2 | 0.75 | 5.6 | 4.2 |  |
